{
  "source": "patent US11116735B2",
  "about": "“Use of substituted benzylideneguanidine derivatives as synergists for polymyxin antibiotics” (GUANGZHOU INSIGHTER BIOTECHNOLOGY CO., LTD., priority 2015, dated 2021)",
  "key": {"[1]": {"tested_on": "E. coli 5F-1", "test": "MIC by doubling dilution, colistin sulfate-resistant E. coli 5F-1", "method": "(§1) In vitro minimum inhibitory concentrations of colistin sulfate against the strains where the cultures respectively comprised 20.0 ppm of the substituted benzylideneguanidine derivatives were also measured."}, "[2]": {"tested_on": "E. coli 2S-19", "test": "MIC by doubling dilution, colistin sulfate-susceptible E. coli 2S-19", "format": "cell-based, Escherichia coli"}, "[3]": {"tested_on": "E. coli 3Y-9", "test": "MIC by doubling dilution, colistin sulfate-susceptible E. coli 3Y-9", "format": "cell-based, Escherichia coli"}, "[4]": {"tested_on": "E. coli 3H-4", "test": "MIC by doubling dilution, colistin sulfate-resistant E. coli 3H-4", "method": "as §1"}, "[5]": {"tested_on": "E. coli 2G-7", "test": "MIC by doubling dilution, colistin sulfate-resistant E. coli 2G-7", "method": "as §1"}, "[6]": {"tested_on": "E. coli 4D-6", "test": "MIC by doubling dilution, colistin sulfate-resistant E. coli 4D-6", "method": "as §1"}},
  "data": [
    {"smiles": "CC(C)Oc1ccc(C=NN=C(N)NN=Cc2ccc(OC(C)C)cc2)cc1", "note": "[Compound 3]", "values": [
      {"measurement": "In vitro minimum inhibitory concentration (MIC) of the substance alone", "setting": "[1]; E. coli 5F-1, colistin sulfate-resistant, substance alone, derivatives as hydrochlorides", "value": ">800", "unit": "ppm"},
      {"measurement": "In vitro MIC of colistin sulfate in the presence of the substituted benzylideneguanidine derivative", "setting": "[1]; E. coli 5F-1, resistant, culture comprised 20.0 ppm of the derivative (hydrochloride)", "value": 1.0, "unit": "ppm"},
      {"measurement": "In vitro minimum inhibitory concentration (MIC) of the substance alone", "setting": "[2]; E. coli 2S-19, colistin sulfate-susceptible, substance alone, derivatives as hydrochlorides", "value": ">800", "unit": "ppm"},
      {"measurement": "In vitro MIC of colistin sulfate in the presence of the substituted benzylideneguanidine derivative", "setting": "[2]; E. coli 2S-19, culture comprised 20.0 ppm of the derivative (hydrochloride), colistin sulfate serially diluted", "value": 0.50, "unit": "ppm"},
      {"measurement": "In vitro minimum inhibitory concentration (MIC) of the substance alone", "setting": "[3]; E. coli 3Y-9, colistin sulfate-susceptible, substance alone, derivatives as hydrochlorides", "value": ">800", "unit": "ppm"},
      {"measurement": "In vitro MIC of colistin sulfate in the presence of the substituted benzylideneguanidine derivative", "setting": "[3]; E. coli 3Y-9, culture comprised 20.0 ppm of the derivative (hydrochloride), colistin sulfate serially diluted", "value": 0.50, "unit": "ppm"},
      {"measurement": "In vitro minimum inhibitory concentration (MIC) of the substance alone", "setting": "[4]; E. coli 3H-4, colistin sulfate-resistant, substance alone, derivatives as hydrochlorides", "value": ">800", "unit": "ppm"},
      {"measurement": "In vitro MIC of colistin sulfate in the presence of the substituted benzylideneguanidine derivative", "setting": "[4]; E. coli 3H-4, resistant, culture comprised 20.0 ppm of the derivative (hydrochloride)", "value": 0.5, "unit": "ppm"},
      {"measurement": "In vitro minimum inhibitory concentration (MIC) of the substance alone", "setting": "[5]; E. coli 2G-7, colistin sulfate-resistant, substance alone, derivatives as hydrochlorides", "value": ">800", "unit": "ppm"},
      {"measurement": "In vitro MIC of colistin sulfate in the presence of the substituted benzylideneguanidine derivative", "setting": "[5]; E. coli 2G-7, resistant, culture comprised 20.0 ppm of the derivative (hydrochloride)", "value": 1.0, "unit": "ppm"},
      {"measurement": "In vitro minimum inhibitory concentration (MIC) of the substance alone", "setting": "[6]; E. coli 4D-6, colistin sulfate-resistant, substance alone, derivatives as hydrochlorides", "value": ">800", "unit": "ppm"},
      {"measurement": "In vitro MIC of colistin sulfate in the presence of the substituted benzylideneguanidine derivative", "setting": "[6]; E. coli 4D-6, resistant, culture comprised 20.0 ppm of the derivative (hydrochloride)", "value": 2.0, "unit": "ppm"}
    ]}
  ]
}
